Counter-ions that a name gives are not always drawn.
Experiments:
ribonucleotide reductase = ribonucleotide reductase inhibition (conversion of CDP to dCDP), Table 1; assay type: biochemical; details: enzyme partially purified from HeLa cells or Ehrlich ascites cells; 40 min, 30° C; read-out: ID50 (inhibitory dose which inhibits ribonucleotide reductase by 50%)
Source text: Compounds represented by formula I above have the ability to inhibit ribonucleotide reductase, an enzyme involved in the reductive conversion of ribonucleotides to deoxyribonucleotides. This enzymatic reaction is a rate controlling step in the biosynthetic pathway leading to DNA and cell replication. In general, the ribonucleotide reductase level is closely correlated with cellular replication. […] In addition, the compounds have shown activity against P388 leukemia and B16 melanoma.
The results of biological tests of compounds according to formula I are incorporated in a series of Tables which follow. Table 1 gives ribonucleotide reductase data for representative compounds of formula I. In the table, column 1 gives the substitution pattern in the benzene- ring, column 2, the (CHR")m group, column 3, the [drawing 5] group, and column 4, the ID50 (inhibitory dose in micromolar concentration which inhibits ribonucleotide reductase by 50%) in μmoles.
In the above determination of ID50 's in Table 1, ribonucleotide reductase is partially purified from HeLa cells or Ehrlich ascites cells by a procedure similar to that set forth by Elford et al. J. Biol. Chem., 245, 5228 (1970). The activity of the enzyme was measured by a slightly modified assay procedure originally developed by Reichard et al. id, 236, 1150 (1969). This procedure measures the conversion of CDP to dCDP. The assay mixture (0.34 ml.) contains 3 μCi of [^3 H] CDP (specific activity […]), 3.3 μmole ATP, 5.9 μmoles magnesium chloride, 8.8 μmoles Hepes buffer at pH=7.5, 15 μmoles dithiothreitol and enzyme protein between 0.4 and 1.3 mg. Incubation was provided for forty minutes at 30° C. Ion exchange chromatography employing Dowex 50 (H^+) resin is used to separate the product from the substrate. The inhibitors were dissolved in water and a mixture of water and up to 1% ethanol or 2% dimethylsulfoxide, neither one of which inhibited the enzyme at these concentrations. Each inhibitor was tested at a minimum of three concentrations and the active compounds reassayed at least one additional time. ID50 's (μmolar) were estimate from graphs summarizing results for each compound.

L1210 leukemia = assay: antitumor activity in L1210 leukemia (percent increase in survival time), Table 2; assay type: in vivo, mice; details: 8 days; for ILS at 200 mg/kg: 200 mg/kg ip daily; for ILS at 100 mg/kg: 100 mg/kg ip daily
Experimental: Testing of the compounds of this invention against L-1210 lymphoid leukemia were carried out as follows: L-1210 leukemia was maintained by weekly passage of 10^5 L-1210 cells intraperitoneally into DBA/2 mice. Diluted ascitic fluid, 0.1 ml. (10^5 cells), was administered ip to female B6D2 F1 mice weighing about 20 g. Drugs were administered ip 24 hours after tumor transplantation and injections were continued daily for a total of eight days. A group of control mice receiving only the injection medium were maintained. Table 2 which follows gives the antitumor activity against L-1210 leukemia for certain compounds of this invention. In the table, column 1 gives the name of the compound, column 2 the dose in mg./kg., and column 3 the percent increase in survival time over controls at each dose level.

[1] = system: superoxide (xanthine oxidase reaction or human leukocytes); assay: effect on superoxide generation in vitro; assay type: biochemical
Experimental: The rate of production of superoxide from the xanthine oxidase reaction or from human leukocytes activated with phorbol myristate acetate was measured spectrophotometrically as the superoxide dismutase (SOD)-inhibitable portion of the reduction of ferricytochrome c or nitroblue tetrazolium (NBT). All assays were carried out at 37° C., pH 7.1. For the superoxide production by the xanthine oxidase reaction, a concentration of 0.04 U/ml of xanthine oxidase was used with 0.1 mM xanthine as substrate. Absorbances were measured in the presence of 30 U/ml of SOD and in its absence. The indicators were either ferricytochrome c or NBT in a concentration of 20 uM. The initial rate of reduction of NBT was monitored at 530 nm and that of cytochrome c at 550 nm. Extinction coefficients were 21.4×10 ^3 /M cm for cytochrome c and 17.9×10^3 /M cm for NBT. The initial rate of production of superoxide from leukocytes was measured using a concentration of 20 uM ferricytochrome c or NBT as described above in the presence and absence of 30 U/ml of SOD.

[2] = free radical scavenging ability (destruction of diphenylpicrylhydrazyl), Table 7; details: 100 μM diphenylpicrylhydrazyl in acetone; test compound 25 μM, 2.5 μM (footnote)
Source text: It is believed that the antineoplastic activity of the compounds of this invention is due in parts to their ability to scavenge free-radicals. Additionally, the compounds of this invention are cancer protective agents and this utility also may be a manifestation of their free-radical scavenging capability. Free-radical scavenging agents may also be useful in detoxifying mammals in whom an excess of free radicals is a cause and/or result of the toxicity. Other possible uses of free radical scavengers are to inhibit protaglandin transformation, leucotriene interconversion and lipogenesis, to act as inflammatory modulators and as food additive or preservatives to prevent lipid oxidation. The free radical scavenging ability of the compounds of the invention was determined by measuring the destruction of the stable free radical, diphenylpicrylhydrazyl, in the presence of the test compound in a manner similar to that reported by […] and Herzmann, Naturwiss, 47, 133-134 (1960). […] The test compound was added at a final concentration of 25 μM and the rate of reduction of absorpotion at […] was observed. Table 7 below gives the free radical scavenging abilities of the compounds of this invention expresses as the initial rate of decrease in optical density units/min.

L1210 = assay: antileukemia activity of nitriles vs L1210, Table 8; assay type: in vivo
Source text: Table 8 which follows gives anti-tumor data vs L-1210 and P-388 leukemia for these novel nitriles.

[3] = Mus musculus, L1210, 192 h, 300 mg/kg ip daily

N=C(N)c1cc(O)c(O)c(O)c1 [drawing 14]
IC50 (ribonucleotide reductase): 25 µM

ON=C(NO)c1ccc(O)c(O)c1 [3,4-dihydroxybenzohydroxyamidoxime-HCl, 3,4-Dihydroxybenzohydroxyamidoxime hydrochloride]
ILS at 155 mg/kg (L1210 leukemia; Mus musculus, L1210, 192 h, 155 mg/kg ip daily): 39% | ILS at 200 mg/kg (L1210 leukemia; Mus musculus, L1210, 192 h): 47.8% | ILS at 300 mg/kg (L1210 leukemia; [3]): 41.3%

ON=C(NO)c1ccc(O)c(O)c1 [drawing 11]
IC50 (ribonucleotide reductase): 40 µM

CCOC(=N)c1cc(O)c(O)c(O)c1 [drawing 13]
IC50 (ribonucleotide reductase): 15 µM

3,4,5-TRIHYDROXYBENZAMIDATE
Cytochrome C Reduction ([1]; 10 uM compound): 4.89 nmol | NBT Reduction ([1]; 10 uM compound): 7.60 nmol | Cytochrome C Reduction ([1]; 20 uM compound): 3.21 nmol | NBT Reduction ([1]; 20 uM compound): 6.10 nmol | Cytochrome C Reduction ([1]; 50 uM compound): 2.22 nmol | NBT Reduction ([1]; 50 uM compound): 3.67 nmol | Cytochrome C Reduction ([1]; 100 uM compound): 1.91 nmol | NBT Reduction ([1]; 100 uM compound): 1.78 nmol | NBT Reduction ([1]; 200 uM compound): 1.45 nmol | NBT Reduction ([1]; 500 uM compound): 1.23 nmol

NC(=NO)c1ccc(O)c(O)c1 [drawing 8]
IC50 (ribonucleotide reductase): 8 µM

NC(=NO)c1ccc(O)c(O)c1O [drawing 17]
IC50 (ribonucleotide reductase): 7 µM

Cl.N=C(N)c1ccc(O)c(O)c1 [3,4-dihydroxybenzamidine-HCl]
initial rate of decrease in optical density (518 nm) [2]: 1.721 units/min. | ILS at 52 mg/kg (L1210 leukemia; Mus musculus, L1210, 192 h, 52 mg/kg ip daily): 26.8% | ILS at 100 mg/kg (L1210 leukemia; Mus musculus, L1210, 192 h): 58.3% | ILS at 104 mg/kg (L1210 leukemia; Mus musculus, L1210, 192 h, 104 mg/kg ip daily): 34.1% | ILS at 200 mg/kg (L1210 leukemia; Mus musculus, L1210, 192 h): 41.7% | ILS at 300 mg/kg (L1210 leukemia; [3]): 47.2% | ILS at 400 mg/kg (L1210 leukemia; Mus musculus, L1210, 192 h, 400 mg/kg ip daily): 47.8% | ILS at 603 mg/kg (L1210 leukemia; Mus musculus, L1210, 192 h, 603 mg/kg ip daily): 83%

CCOC(=N)c1ccc(O)c(O)c1 [ethyl 3,4-dihydroxybenzamidate-HCl, ethyl 3,4-dihydroxybenzamidate hydrochloride]
initial rate of decrease in optical density (518 nm) [2]: 0.706 units/min. | % Increase in Survival Time (L1210 leukemia; 218 mg/kg ip daily): toxic | % Increase in Survival Time (L1210 leukemia; 327 mg/kg ip daily): toxic | % Increase in Survival Time (L1210 leukemia; 435 mg/kg ip daily): toxic

NC(=NO)c1cc(O)c(O)c(O)c1 [drawing 12]
IC50 (ribonucleotide reductase): 5 µM

N#Cc1c(O)c(O)c(O)c(O)c1O [pentahydroxybenzonitrile]
% Increase in Survival Time (L1210; 34.3 mg/kg): 14.2% | % Increase in Survival Time (L1210; 51.5 mg/kg): 0% | % Increase in Survival Time (L1210; 77.2 mg/kg): Toxic | % Increase in Survival Time (L1210; 116.0 mg/kg): Toxic

NC(=NO)c1ccc(O)c(O)c1O [2,3,4-trihydroxybenzamidoxime-HCl, 2,3,4-trihydroxybenzamidoxime]
% Increase in Survival Time (L1210 leukemia; 300 mg/kg ip daily): toxic | ILS at 100 mg/kg (L1210 leukemia; Mus musculus, L1210, 192 h): 38.9% | ILS at 200 mg/kg (L1210 leukemia; Mus musculus, L1210, 192 h): 36.1% | ILS at 218 mg/kg (L1210 leukemia; Mus musculus, L1210, 192 h, 218 mg/kg ip daily): 67.7%

N=C(N)c1ccc(O)c(O)c1 [drawing 10]
IC50 (ribonucleotide reductase): 20 µM

N#Cc1ccc(O)c(O)c1O [2,3,4-trihydroxybenzonitrile]
% Increase in Survival Time (L1210; 50 mg/kg): 11.0% | % Increase in Survival Time (L1210; 100 mg/kg): 26.0% | % Increase in Survival Time (L1210; 155 mg/kg): 12.1% | % Increase in Survival Time (L1210; 259 mg/kg): Toxic | % Increase in Survival Time (L1210; 327 mg/kg): Toxic

NC(=NO)C(O)c1ccc(O)c(O)c1.O (stereo not shown) [3,4-dihydroxymandelamidoxime, 3,4-dihydroxymandelamidoxime monohydrate]
initial rate of decrease in optical density (518 nm) [2]: 0.383 units/min. | ILS at 435 mg/kg (L1210 leukemia; Mus musculus, L1210, 192 h, 435 mg/kg ip daily): 45.2% | ILS at 606 mg/kg (L1210 leukemia; Mus musculus, L1210, 192 h, 606 mg/kg ip daily): 45.2%

N#Cc1ccc(O)c(O)c1 [3,4-dihydroxybenzonitrile]
% Increase in Survival Time (L1210; 47.6 mg/kg): 4.7% | % Increase in Survival Time (L1210; 95.2 mg/kg): 15.6% | % Increase in Survival Time (L1210; 196 mg/kg): Toxic

ON=C(NO)c1cc(O)c(O)c(O)c1 [drawing 16]
IC50 (ribonucleotide reductase): 25 µM

ON=C(NO)c1cc(O)c(O)c(O)c1 [3,4,5-trihydroxybenzohydroxyamidoxime-HCl]
initial rate of decrease in optical density (518 nm) [2]: 0.882 units/min. | ILS at 100 mg/kg (L1210 leukemia; Mus musculus, L1210, 192 h): 47.2% | ILS at 200 mg/kg (L1210 leukemia; Mus musculus, L1210, 192 h): 55.6% | ILS at 300 mg/kg (L1210 leukemia; [3]): 63.9%

NC(=NO)c1cccc(O)c1O
IC50 (ribonucleotide reductase): 18 µM

N#Cc1cc(O)c(O)c(O)c1O [2,3,4,5-tetrahydroxybenzonitrile]
% Increase in Survival Time (L1210; 163 mg/kg): 48.4% | % Increase in Survival Time (L1210; 230 mg/kg): Toxic

CCOC(=N)c1ccc(O)c(O)c1 [drawing 9]
IC50 (ribonucleotide reductase): 12 µM

Cl.NC(=NO)c1cccc(O)c1O [2,3-dihydroxybenzamidoxime-HCl]
% Increase in Survival Time (L1210 leukemia; 300 mg/kg ip daily): toxic
